Data: patent US20210254173A1, “PREDICTIVE 7-GENE ASSAY AND PROGNOSTIC PROTEIN BIOMARKER FOR NON-SMALL CELL LUNG CANCER” (West Virginia University, priority 2018, published 2021)

How the values were obtained:
Type in all cases: in vivo, human
ABCC4 = test: Chemoresponse prediction: Cox proportional hazard model using ABCC4 ΔCt values in qRT-PCR assays of NSCLC patients
Method: (§1) Patient samples. All NSCLC patients were staged I, II, or IIIA at the time of diagnosis. Tumor tissues were collected in surgical resections and were snap-frozen at −80° C. until used for RNA extraction. Tumor cell content was above 50% for qRT-PCR assays. Those with missing AJCC staging information, missing histology, death within 30 days of resection or from other disease conditions were excluded from further analysis. A total of 122 NSCLC patient samples were obtained from Case Western Reserve University (CWRU) Comprehensive Cancer Center. […] The tissue collection in this study was approved by an Institutional Review Board (IRB) at each institution.
RNA extraction, and quality and concentration assessments. Total RNA was extracted from snap-frozen tumor tissues using a RNeasy mini kit according the manufacturer's protocol (Qiagen, USA), followed by elution in 30 μl of RNase-free water and storage at −80° C. The quality and integrity of the RNA, the 28S to 18S ratio, and a visual image of the 28S and 18S bands were evaluated on the 2100 Bioanalyzer (Agilent Technologies, CA). […] The RNA concentration of each sample was assessed using a Nanodrop-1000 Spectrophotometer (NanoDrop Tech, Germany).
Generation of complementary DNA (cDNA). The reverse transcriptase polymerase chain reaction was used to convert the high-quality single-stranded RNA samples to double-stranded cDNA, using an Applied Biosystems GeneAmp® PCR 9700 machine (Foster City, Calif.). For standardization across all samples, one microgram of RNA was used to generate cDNA.
Real-time quantitative RT-PCR low-density arrays. Real-time qRT-PCR assays of independent patient cohorts of NSCLC tumor samples were used to further select biomarkers to form a multi-gene assay from prognostic genes identified from microarray data in our previous studies.
(§2) Three hundred thirty seven (337) tumor samples were analyzed with good RNA quality using TaqMan microfluidic low-density array (LDA) plates on an ABI 7900HT Fast RT-PCR instrument (Applied Biosystems).

SLC39A8 = test: Chemoresponse prediction: Cox proportional hazard model using SLC39A8 ΔCt values in qRT-PCR assays of NSCLC patients; details: prediction by high SLC39A8 expression
Method: as §1
RNA extraction, and quality and concentration assessments. […] The quality and integrity of the RNA, the 28S to 18S ratio, and a visual image of the 28S and 18S bands were evaluated on the 2100 Bioanalyzer (Agilent Technologies, CA). […] The RNA concentration of each sample was assessed using a Nanodrop-1000 Spectrophotometer (NanoDrop Tech, Germany). […]
(§3) Real-time quantitative RT-PCR low-density arrays. […]
as §2

FUT7 = test: Chemoresponse prediction: Cox proportional hazard model using FUT7 ΔCt values in qRT-PCR assays of NSCLC patients
Method: Patient samples. All NSCLC patients were staged I, II, or IIIA at the time of diagnosis. Tumor tissues were collected in surgical resections and were snap-frozen at −80° C. until used for RNA extraction. Tumor cell content was above 50% for qRT-PCR assays. Those with missing AJCC staging information, missing histology, death within 30 days of resection or from other disease conditions were excluded from further analysis. A total of 122 NSCLC patient samples were obtained from Case Western Reserve University (CWRU) Comprehensive Cancer Center. Total RNA of good quality was extracted from 89 tumor specimens. […]
RNA extraction, and quality and concentration assessments. […] The quality and integrity of the RNA, the 28S to 18S ratio, and a visual image of the 28S and 18S bands were evaluated on the 2100 Bioanalyzer (Agilent Technologies, CA). RNA assessed as having good quality from […] tumor samples was included for further analysis. The RNA concentration of each sample was assessed using a Nanodrop-1000 Spectrophotometer (NanoDrop Tech, Germany). […]
as §3
Three hundred thirty seven (337) tumor samples were analyzed with good RNA quality using TaqMan microfluidic low-density array (LDA) plates on an ABI 7900HT Fast RT-PCR instrument (Applied Biosystems). Total RNA samples were analyzed on an Agilent 2100 Bioanalyzer RNA 6000 Nano LabChip. […]

[1] = ABCC4 ΔCt as covariate, Cox model, NSCLC patients treated with the named agent(s)

| Compound | Hazard ratio of death from disease with 95% CI (ABCC4; [1]) | Hazard ratio of recurrence with 95% CI (ABCC4; [1]) | Chemosensitive/resistant (ABCC4; prediction by high ABCC4 expression, patients treated with the named agent(s)) | Chemosensitive/resistant (SLC39A8) | Hazard ratio of death from disease with 95% CI (FUT7; FUT7 ΔCt as covariate, Cox model, NSCLC patients treated with the named agent) | Chemosensitive/resistant (FUT7; prediction by high FUT7 expression) |
| --- | --- | --- | --- | --- | --- | --- |
| CC(=O)O[C@H]1C(=O)[C@@]2(C)[C@H]([C@H](OC(=O)c3ccccc3)[C@]3(O)C[C@H](OC(=O)[C@H](O)[C@@H](NC(=O)c4ccccc4)c4ccccc4)C(C)=C1C3(C)C)[C@]1(OC(C)=O)CO[C@@H]1C[C@@H]2O [Taxol, paclitaxel] | 0.403 | 0.48 | Chemoresistant | Chemoresistant |  |  |
| N.N.O=C([O-])C1(C(=O)[O-])CCC1.[Pt+2] [Carboplatin, carboplatin] |  |  |  |  | 1.605 | Chemosensitive |
| Nc1nc2[nH]cc(CCc3ccc(C(=O)N[C@@H](CCC(=O)O)C(=O)O)cc3)c2c(=O)[nH]1 [Alimta, pemetrexed] |  |  |  | Chemoresistant |  |  |
